For test [1], the target named is Metabotropic glutamate receptor 5 (Homo sapiens) (UniProt P41594). The test is described as follows: Positive allosteric modulator activity at mGluR5 receptor expressed in HEK293A cells assessed as maximum glutamate-induced response preincubated for 140 secs before glutamate challenge by calcium fluorescence assay. The following applies: HEK293-A. Format: functional, cell-based.

In test [2] the target is T1, Metabotropic glutamate receptor 5 (Rattus norvegicus, UniProt P31424). The experiment in a line: Positive allosteric modulator activity at mGluR5 receptor expressed in HEK293A cells assessed as effect on glutamate-induced calcium flux preincubated for 140 secs before glutamate challenge by calcium fluorescence assay. The class given is functional, cell-based, HEK293-A.
Target sequence in this assay (P31424 whole entry, looked up): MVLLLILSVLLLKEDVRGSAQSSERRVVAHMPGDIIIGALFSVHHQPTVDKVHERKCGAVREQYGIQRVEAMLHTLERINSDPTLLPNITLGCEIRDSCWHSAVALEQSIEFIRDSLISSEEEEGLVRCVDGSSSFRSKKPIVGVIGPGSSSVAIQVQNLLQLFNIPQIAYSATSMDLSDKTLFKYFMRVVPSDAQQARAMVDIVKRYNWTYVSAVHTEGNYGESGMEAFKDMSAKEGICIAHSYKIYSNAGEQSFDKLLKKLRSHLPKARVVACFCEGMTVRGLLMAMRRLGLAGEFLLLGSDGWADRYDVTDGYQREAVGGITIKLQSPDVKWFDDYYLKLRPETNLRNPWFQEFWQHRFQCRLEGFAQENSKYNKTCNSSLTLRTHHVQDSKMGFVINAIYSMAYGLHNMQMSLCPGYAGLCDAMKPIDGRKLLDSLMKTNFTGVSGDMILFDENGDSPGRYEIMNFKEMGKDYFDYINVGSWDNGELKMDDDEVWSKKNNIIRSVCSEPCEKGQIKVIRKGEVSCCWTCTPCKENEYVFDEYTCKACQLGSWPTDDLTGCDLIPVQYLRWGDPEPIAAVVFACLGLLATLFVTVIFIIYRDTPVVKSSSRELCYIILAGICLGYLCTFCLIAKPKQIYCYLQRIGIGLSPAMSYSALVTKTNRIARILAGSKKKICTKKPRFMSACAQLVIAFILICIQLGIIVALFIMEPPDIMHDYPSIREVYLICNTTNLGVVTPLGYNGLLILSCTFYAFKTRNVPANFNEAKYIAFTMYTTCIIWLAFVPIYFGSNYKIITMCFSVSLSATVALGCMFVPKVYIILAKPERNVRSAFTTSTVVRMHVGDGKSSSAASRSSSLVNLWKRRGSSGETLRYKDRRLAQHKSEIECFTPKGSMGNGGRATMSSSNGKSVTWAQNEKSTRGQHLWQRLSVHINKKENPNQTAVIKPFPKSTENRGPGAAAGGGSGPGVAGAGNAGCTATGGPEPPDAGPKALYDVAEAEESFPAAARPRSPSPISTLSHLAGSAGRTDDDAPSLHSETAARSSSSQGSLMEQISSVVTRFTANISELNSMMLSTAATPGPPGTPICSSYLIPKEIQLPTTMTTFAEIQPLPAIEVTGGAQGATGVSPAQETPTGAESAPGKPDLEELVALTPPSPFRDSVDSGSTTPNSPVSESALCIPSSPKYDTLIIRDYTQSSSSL

For test [3], the target named is Metabotropic glutamate receptor 5 (Rattus norvegicus) (UniProt P31424). The experiment in a line: Positive allosteric modulator activity at rat mGlu5 receptor expressed in HEK293A cells assessed as fold shift in glutamate induced response relative to control. The class given is cell-based. The settings on record: HEK293-A.
For test [4], the target named is T1, Metabotropic glutamate receptor 5. The experiment in a line: Positive allosteric modulator activity at rat mGlu5 receptor expressed in HEK293A cells assessed as increase in glutamate induced response. Format: cell-based, HEK293-A.
Target sequence in this assay (P31424 whole entry): as the sequence (P31424 whole entry, looked up) above
In test [5] the target is Metabotropic glutamate receptor 5 (Homo sapiens) (UniProt P41594). The test is described as follows: Ago-Positive allosteric modulator activity at mGluR5 receptor expressed in HEK293A cells assessed as maximum glutamate-induced response preincubated for 140 secs before glutamate challenge by calcium fluorescence assay. Format: functional, cell-based. The settings on record: HEK293-A.

The target of test [6] is T1, Metabotropic glutamate receptor 5. The experiment in a line: Ago-Positive allosteric modulator activity at mGluR5 receptor expressed in HEK293A cells assessed as effect on glutamate-induced calcium flux preincubated for 140 secs before glutamate challenge by calcium fluorescence assay. Format: functional, cell-based, HEK293-A. On the technique in general: Calcium flux is commonly read through the fluorescence of an indicator in the cells.
Target sequence in this assay (P31424 whole entry, looked up): as above

For test [7] the target is unchanged. The test is described as follows: Negative allosteric modulator activity at mGluR5 receptor expressed in HEK293A cells assessed as inhibition of glutamate-induced calcium flux preincubated for 140 secs before glutamate challenge by calcium fluorescence assay. Format: functional, cell-based, HEK293-A.
Target sequence in this assay (P31424 whole entry, looked up): as above
For test [8], the target named is Metabotropic glutamate receptor 5 (Homo sapiens) (UniProt P41594). The experiment in a line: Negative allosteric modulator activity at mGluR5 receptor expressed in HEK293A cells assessed as maximum glutamate-induced response preincubated for 140 secs before glutamate challenge by calcium fluorescence assay. The class given is functional, cell-based. The following applies: HEK293-A.

In test [9] the target is T1, Metabotropic glutamate receptor 5. The experiment in a line: Partial antagonist activity at mGluR5 receptor expressed in HEK293A cells assessed as inhibition of glutamate-induced calcium flux preincubated for 140 secs before glutamate challenge by calcium fluorescence assay. Format: functional, cell-based, HEK293-A.
Target sequence in this assay (P31424 whole entry, looked up): as above
Test [10] concerns the target Metabotropic glutamate receptor 5 (Homo sapiens) (UniProt P41594). The test is described as follows: Partial antagonist activity at mGluR5 receptor expressed in HEK293A cells assessed as maximum glutamate-induced response preincubated for 140 secs before glutamate challenge by calcium fluorescence assay. The class given is functional, cell-based. Also noted: scale not given: the % may be the effect or the level left. The following applies: HEK293-A.

For test [11], the target named is T1, Metabotropic glutamate receptor 5. The experiment in a line: Negative allosteric modulator activity at rat mGluR5 receptor expressed in HEK293A cells.
Target sequence in this assay (P31424 whole entry): as the sequence (P31424 whole entry, looked up) above

SMILES strings stand for the structures.

Broadly, the EC50 is the midpoint of the concentration-response curve. A word on the IC50: it is the concentration that gives 50% inhibition.

Sequence of Metabotropic glutamate receptor 5 (Rattus norvegicus) (P31424 21-1203 limits assumed): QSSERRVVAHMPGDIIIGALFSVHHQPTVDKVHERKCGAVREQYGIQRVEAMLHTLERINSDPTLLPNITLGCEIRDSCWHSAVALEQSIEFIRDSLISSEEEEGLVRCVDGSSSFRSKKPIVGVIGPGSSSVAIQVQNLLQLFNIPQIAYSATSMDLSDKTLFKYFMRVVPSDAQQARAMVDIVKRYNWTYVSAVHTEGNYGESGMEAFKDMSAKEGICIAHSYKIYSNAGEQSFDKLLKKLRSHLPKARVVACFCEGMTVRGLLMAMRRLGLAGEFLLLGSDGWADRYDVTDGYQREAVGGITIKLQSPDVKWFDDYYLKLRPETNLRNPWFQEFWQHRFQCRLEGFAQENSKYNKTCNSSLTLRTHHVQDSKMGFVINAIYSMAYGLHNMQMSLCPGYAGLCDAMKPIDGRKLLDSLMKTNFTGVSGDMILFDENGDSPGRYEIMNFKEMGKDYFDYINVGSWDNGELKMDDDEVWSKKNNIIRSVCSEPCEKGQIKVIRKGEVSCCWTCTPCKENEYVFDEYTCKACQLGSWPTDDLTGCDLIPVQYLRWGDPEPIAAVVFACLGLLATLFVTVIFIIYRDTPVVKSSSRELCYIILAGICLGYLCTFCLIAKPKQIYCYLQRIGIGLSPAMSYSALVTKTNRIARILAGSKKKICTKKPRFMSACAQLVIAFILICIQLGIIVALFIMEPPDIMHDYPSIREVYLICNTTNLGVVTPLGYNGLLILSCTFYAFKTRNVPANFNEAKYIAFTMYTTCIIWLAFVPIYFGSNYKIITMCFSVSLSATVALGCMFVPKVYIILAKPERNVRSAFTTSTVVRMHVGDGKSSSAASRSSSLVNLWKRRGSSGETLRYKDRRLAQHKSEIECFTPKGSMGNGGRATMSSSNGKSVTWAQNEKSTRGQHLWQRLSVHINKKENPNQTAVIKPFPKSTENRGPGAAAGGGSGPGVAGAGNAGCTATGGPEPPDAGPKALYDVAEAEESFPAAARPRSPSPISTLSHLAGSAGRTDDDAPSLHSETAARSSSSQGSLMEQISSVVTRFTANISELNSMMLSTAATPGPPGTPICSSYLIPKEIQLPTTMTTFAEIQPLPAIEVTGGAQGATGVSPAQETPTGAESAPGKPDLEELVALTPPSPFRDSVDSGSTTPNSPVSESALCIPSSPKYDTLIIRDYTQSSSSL
Sequence of Metabotropic glutamate receptor 5 (Homo sapiens) (P41594 21-1212 limits assumed): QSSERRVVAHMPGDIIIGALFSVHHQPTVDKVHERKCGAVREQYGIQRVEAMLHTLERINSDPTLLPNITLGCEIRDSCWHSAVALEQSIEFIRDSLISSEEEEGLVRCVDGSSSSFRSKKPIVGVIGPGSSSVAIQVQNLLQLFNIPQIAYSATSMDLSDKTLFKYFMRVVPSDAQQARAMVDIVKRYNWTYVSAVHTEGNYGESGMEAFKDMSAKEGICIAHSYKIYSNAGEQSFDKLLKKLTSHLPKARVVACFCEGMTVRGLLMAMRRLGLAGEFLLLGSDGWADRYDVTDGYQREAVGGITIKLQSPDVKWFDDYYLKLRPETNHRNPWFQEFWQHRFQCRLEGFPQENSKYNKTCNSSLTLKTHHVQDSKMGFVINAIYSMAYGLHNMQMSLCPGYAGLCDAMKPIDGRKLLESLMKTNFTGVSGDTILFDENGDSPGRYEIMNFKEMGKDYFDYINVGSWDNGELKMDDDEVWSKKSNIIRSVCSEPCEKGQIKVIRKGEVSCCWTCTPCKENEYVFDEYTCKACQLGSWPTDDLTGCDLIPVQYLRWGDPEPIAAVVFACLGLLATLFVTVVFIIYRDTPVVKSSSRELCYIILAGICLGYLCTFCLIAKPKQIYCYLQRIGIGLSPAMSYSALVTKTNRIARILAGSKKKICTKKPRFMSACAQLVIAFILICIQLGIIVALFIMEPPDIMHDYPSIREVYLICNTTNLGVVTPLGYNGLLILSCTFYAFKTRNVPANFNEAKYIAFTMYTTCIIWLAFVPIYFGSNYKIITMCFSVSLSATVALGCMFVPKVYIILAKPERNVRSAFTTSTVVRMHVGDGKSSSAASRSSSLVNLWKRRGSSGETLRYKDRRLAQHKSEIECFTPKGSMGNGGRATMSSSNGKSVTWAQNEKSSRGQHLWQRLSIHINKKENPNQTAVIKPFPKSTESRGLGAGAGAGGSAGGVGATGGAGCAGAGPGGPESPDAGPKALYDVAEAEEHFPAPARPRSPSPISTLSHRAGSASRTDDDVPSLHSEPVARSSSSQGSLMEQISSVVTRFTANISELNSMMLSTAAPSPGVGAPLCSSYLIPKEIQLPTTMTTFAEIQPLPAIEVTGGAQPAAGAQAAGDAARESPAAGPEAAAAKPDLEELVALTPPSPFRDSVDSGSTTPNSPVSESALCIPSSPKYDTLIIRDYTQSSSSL

Take `O=C(C1CCC1)N1CCCC1c1nc(-c2cccc(F)c2)no1` (racemic): in [1], the Activity turned out to be 64%.
With `O=C(c1ccc(F)c(F)c1)N1CCCC1c1nc(-c2cccc(F)c2)no1` (centres undefined), the EC50 in test [2] was 3700 nM. For the same compound, the Activity in test [1] was 62%.
As for `O=C(c1cccc(F)c1)N1CCCC[C@@H]1c1nc(-c2cccc(F)c2)no1`, in test [2], the concentration giving a half-maximal response (EC50) was 460 nM. For the same compound, in test [1], the Activity was determined as 59%.
As for `O=C(c1ccc(F)cc1F)N1CCC[C@H](c2nc(-c3ccccn3)no2)C1`, the fold change (FC) in test [3] was 14. Moreover, in test [4], the EC50 stood at 240 nM.
On to `O=C(c1ccc(F)cc1F)N1CCCC1c1nc(-c2cccc(F)c2)no1` (centres undefined), for which the EC50 in test [2] stood at 10000 nM. Further, the Activity in test [1] was found to be 61%.
As to `O=C(C1CCCCC1)N1CCCC[C@@H]1c1nc(-c2cccc(F)c2)no1`, the EC50 in test [2] stood at 3500 nM. The Activity in test [1] stood at 58%.
On to `O=C(C1CCCC1)N1CCCC[C@@H]1c1nc(-c2cccc(F)c2)no1`, for which the Activity in test [5] worked out at 80%. Further, the EC50 in [6] turned out to be 310 nM.
Turning to `Cc1ccc(C#Cc2cncnc2)cc1`, the fold change (FC) in test [3] came out at 4.2.
On to `O=C(C1CCC1)N1CCC[C@@H]1c1nc(-c2cccc(F)c2)no1`, for which the concentration giving a half-maximal response (EC50) in test [2] came out at 530 nM. The Activity in [1] stood at 68.4%.
Turning to `O=C(C1CC1)N1CCCC1c1nc(-c2cccc(F)c2)no1` (centres undefined), in test [2], the EC50 worked out at 2900 nM. Moreover, the Activity in test [1] was 68%.
As for `O=C(C1CCC1)N1CCCC1c1nc(-c2cccc(F)c2)no1` (stereo in doubt; 24b) [listing 1 of 2 here], in test [2], the EC50 is 1500 nM.
With `Cc1cccc(-c2noc([C@H]3CCCCN3C(=O)c3cccc(F)c3)n2)c1`, in test [7], the IC50 stood at 4700 nM. The Activity in test [8] stood at 16%.
Taken in the same sequence, the figures for `O=C(C1CCC1)N1CCC[C@H](c2nc(-c3cccc(Cl)c3)no2)C1` were 200 nM and 2.4%.
Regarding `Cc1cccc(-c2noc([C@@H]3CCCN(C(=O)C4CCC4)C3)n2)c1`, in [7], the IC50 stood at 4700 nM. The Activity in [8] is 14%.
Take `O=C(C1CCC1)N1CCCC1c1nc(-c2cccc(Cl)c2)no1` (racemic): in test [7], the IC50 is 10000 nM. Further, the Activity in [8] was 25%.
For the compound `COc1cccc(-c2noc([C@@H]3CCCN(C(=O)C4CCC4)C3)n2)c1`, the IC50 in test [7] was > 10000 nM. The Activity in test [8] amounted to 54%.
Turning to `COc1cccc(-c2noc([C@H]3CCCN(C(=O)C4CCC4)C3)n2)c1`, in test [7], the IC50 is 1800 nM. For the same compound, the Activity in test [8] was determined as 2.1%.
`O=C(C1CCC1)N1CCCC[C@H]1c1nc(-c2ccccn2)no1`: the 50% inhibitory concentration (IC50) in [7] came to 10000 nM.
As for `O=C(C1CCC1)N1CCCC[C@@H]1c1nc(-c2cccc(F)c2)no1` (stereo in doubt; 22b) [listing 1 of 2 here], in test [1], the Activity came to 38%.
Regarding `Cc1cccc(-c2noc([C@H]3CCCCN3C(=O)c3ccc(F)c(F)c3)n2)c1`, the half-inhibitory concentration (IC50) in test [7] is 10000 nM. Further, the Activity in test [8] amounted to 46%.
`Cc1cccc(-c2noc([C@H]3CCCN(C(=O)C4CCC4)C3)n2)c1`: in [7], the IC50 was found to be 700 nM. Besides, the Activity in test [8] worked out at 2.5%.
For the compound `O=C(C1CCC1)N1CCCC[C@@H]1c1nc(-c2cccc(F)c2)no1` (stereo in doubt; 22b) [listing 2 of 2 here], in [2], the concentration for a half-maximal effect (EC50) worked out at 650 nM.
Take `Cc1cccc(-c2noc([C@H]3CCCCN3C(=O)C3CCCC3)n2)c1`: the IC50 in [9] was determined as 600 nM. Also, the Activity in test [10] is 24%.
Consider `O=C(c1cccc(F)c1)N1CCCC1c1nc(-c2cccc(F)c2)no1` (centres undefined), for which the concentration for a half-maximal effect (EC50) in [2] was 2600 nM. Also, the Activity in [1] was 47%.
For `O=C(C1CCC1)N1CCCC[C@H]1c1nc(-c2cccc(F)c2)no1`, the concentration giving a half-maximal response (EC50) in test [2] is 700 nM.
On to `O=C(c1ccc(F)cc1F)N1CCCC[C@@H]1c1nc(-c2cccc(F)c2)no1`, for which the EC50 in test [2] came out at 2900 nM. Moreover, in test [1], the Activity was determined as 95%.
Turning to `O=C(C1CCC1)N1CCC[C@@H](c2nc(-c3cccc(Cl)c3)no2)C1`, the IC50 in test [7] was determined as 3100 nM. In addition, the Activity in test [8] worked out at 18%.
On to `Cc1cccc(-c2noc(C3CCCN3C(=O)C3CCC3)n2)c1` (racemic), for which the IC50 in [7] was 2400 nM. Further, in [8], the Activity was found to be 34%.
With `O=C(C1CC1)N1CCCC[C@@H]1c1nc(-c2cccc(F)c2)no1`, in test [5], the Activity was determined as 70%. The EC50 in test [6] worked out at 80 nM.
`Cc1cccc(-c2noc([C@H]3CCCCN3C(=O)C3CC3)n2)c1`: the IC50 in test [9] amounted to 280 nM. Besides, the Activity in test [10] turned out to be 16%.
Turning to `Cc1cccc(-c2noc([C@H]3CCCCN3C(=O)C3CCCCC3)n2)c1`, the IC50 in test [7] turned out to be 2500 nM. The Activity in test [8] was determined as 9.2%.
As to `O=C(C1CCC1)N1CCC[C@H]1c1nc(-c2cccc(F)c2)no1`, the half-maximal effective concentration (EC50) in test [2] came out at 7000 nM. Further, the Activity in test [1] is 57.3%.
Take `O=C(c1ccc(F)cc1)N1CCCC1c1nc(-c2cccc(F)c2)no1` (centres undefined): in test [2], the EC50 is 3600 nM. The Activity in [1] turned out to be 59%.
`O=C(C1CCC1)N1CCCC1c1nc(-c2cccc(F)c2)no1` (stereo in doubt; 24b) [listing 2 of 2 here]: the Activity in test [1] stood at 63%.
Turning to `O=C(C1CCC1)N1CCCC[C@@H]1c1nc(-c2cccc(F)c2)no1` (stereo in doubt; (R)-20c), the EC50 in [2] worked out at 600 nM.
Take `O=C(c1ccc(F)c(F)c1)N1CCCC[C@@H]1c1nc(-c2cccc(F)c2)no1`: the concentration giving a half-maximal response (EC50) in test [2] was 1400 nM. Also, the Activity in [1] is 93%.
As for `O=C(C1CCC1)N1CCC[C@H](c2nc(-c3cccs3)no2)C1`, in test [7], the IC50 was 9300 nM. Moreover, the Activity in test [8] was 67%.
Take `O=C(c1cccs1)N1CCCC[C@@H]1c1nc(-c2cccc(F)c2)no1`: in [1], the Activity was determined as 34%.
As to `O=C(C1CCC1)N1CCCC[C@@H]1c1nc(-c2cccs2)no1`, the IC50 in [7] was 3500 nM.
On to `O=C(C1CCC1)N1CCCC[C@H]1c1nc(-c2cccs2)no1`, for which, in [7], the IC50 came out at 2600 nM.
On to `Cc1cccc(-c2noc([C@H]3CCCCN3C(=O)c3ccc(F)cc3)n2)c1`, for which, in [7], the IC50 came to 10000 nM. In addition, in test [8], the Activity was determined as 47%.
The corresponding values for `Cc1cccc(-c2noc([C@H]3CCCCN3C(=O)c3cccs3)n2)c1` are 730 nM and 0.9%.
`O=C(C1CCC1)N1CCC[C@@H](c2nc(-c3ccccn3)no2)C1`: in test [7], the IC50 came to 9900 nM. The Activity in test [8] was 19%.
For the compound `O=C(C1CCCC1)N1CCCC1c1nc(-c2cccc(F)c2)no1` (centres undefined), the half-maximal effective concentration (EC50) in [2] was 1000 nM. For the same compound, the Activity in [1] worked out at 75%.
Take `Cc1cccc(-c2noc([C@@H]3CCCCN3C(=O)C3CCC3)n2)c1`: the IC50 in test [7] is 500 nM.
As for `O=C(C1CCC1)N1CCC[C@H](c2nc(-c3cccc(F)c3)no2)C1`, the IC50 in [7] was 2400 nM. Also, the Activity in test [8] turned out to be 31%.
On to `O=C(C1CCC1)N1CCC[C@H](c2nc(-c3ccccn3)no2)C1`, for which the IC50 in test [11] is 8700 nM; in test [7] it was > 10000 nM. Besides, the Activity in [8] was 33%.
Turning to `O=C(C1CCC1)N1CCC[C@@H](c2nc(-c3cccc(F)c3)no2)C1`, the 50% inhibitory concentration (IC50) in [7] is > 10000 nM. The Activity in [8] is 60%.
As for `O=C(c1ccc(F)cc1)N1CCC[C@H](c2nc(-c3cccs3)no2)C1`, the fold change (FC) in test [3] was determined as 20. Further, the EC50 in test [4] was determined as 170 nM.
`COc1cccc(-c2noc([C@H]3CCCCN3C(=O)C3CCC3)n2)c1`: the IC50 in [7] came out at 300 nM.
On the same count and under the same terms, in the case of `Cc1cccc(-c2noc([C@H]3CCCCN3C(=O)C3CCC3)n2)c1` it was 300 nM.
With `COc1cccc(-c2noc([C@@H]3CCCCN3C(=O)C3CCC3)n2)c1`, in [7], the concentration for half-maximal inhibition (IC50) worked out at 80 nM.
With `O=C(c1cccs1)N1CCCC1c1nc(-c2cccc(F)c2)no1` (centres undefined), the EC50 in test [2] stood at 430 nM. Further, the Activity in [1] turned out to be 60%.
On to `O=C(C1CCC1)N1CCCC1c1nc(-c2ccc(F)cc2)no1` (racemic), for which the concentration giving a half-maximal response (EC50) in [2] turned out to be 2700 nM. For the same compound, the Activity in test [1] was determined as 72%.
Take `O=C(c1ccc(F)cc1)N1CCCC[C@@H]1c1nc(-c2cccc(F)c2)no1`: in [1], the Activity came to 91%.

(Values after ChEMBL document CHEMBL1770117 (Bioorg Med Chem Lett, 2011).)
